Reference: ChEMBL document CHEMBL5346962, “Discovery of Sulanemadlin (ALRN-6924), the First Cell-Permeating, Stabilized α-Helical Peptide in Clinical Development” (J Med Chem, 2023)
Activity calls are given as the source filed them. The rule behind the calls is not given here.

Experiments:
[1] = Plasma protein binding in monkey at 250 uM; type: ADME, cell-free, Macaca mulatta; settings: rhesus monkey, read-out: PPB (converted)
[2] = Plasma protein binding in rat at 250 uM; type: ADME, cell-free; settings: read-out: PPB (converted)
[3] = Plasma protein binding in human at 250 uM; type: ADME, cell-free; settings: read-out: PPB (converted)
[4] = Plasma protein binding in dog at 2 to 50 uM; type: ADME, cell-free, Canis lupus familiaris; settings: dose 2-50 µM, read-out: PPB (converted)
[5] = Induction of cell cycle arrest in human CD34+ cells assessed as accumulation at S phase at 2.5 uM incubated for 24 hrs by flow cytometry (reference value: 27.5 +/- 5.8%); type: toxicity, cell-based; settings: cd34-positive (myeloid/lymphoid) cell
[6] = Half life in rat at 2.5 mg/kg by LC-MS/MS analysis; type: ADME, organism-based; settings: in vivo
[7] = Induction of cell cycle arrest in human CD34+ cells assessed as accumulation at S phase at 5 uM incubated for 24 hrs by flow cytometry (reference value: 27.5 +/- 5.8%); type: toxicity, cell-based; settings: cd34-positive (myeloid/lymphoid) cell
[8] = Half life in cynomolgous monkey at 10 mg/kg by LC-MS/MS analysis; type: ADME, organism-based, Macaca fascicularis; settings: cynomolgus monkey, in vivo
[9] = Half life in rat at 10 mg/kg by LC-MS/MS analysis; type: ADME, organism-based; settings: in vivo
[10] = Cmax in rat at 10 mg/kg by LC-MS/MS analysis; type: ADME, organism-based; set-up: dose 10 mg/kg; settings: in vivo
MCF7 = assay: Antitumor activity against human MCF7 cells xenografted in athymic nude BALB/c mouse assessed as increase in cPARP protein level at 20 mg/kg, iv by immunohistochemical analysis; type: functional, organism-based; settings: time <= 48.0 hrs, TDE = time-dependent effect
Bone marrow cell [11] = assay: Upregulation of serum MIC-1 level […] of C57BL/6 mouse at 2.4 mg/kg, iv administered every 8 hrs measured for 24 hrs by ELISA method; type: functional, organism-based
Fibroblast [12] = assay: Protection against chemotherapy-induced apoptosis in human fibroblast assessed as decrease in caspase-3/7 level preincubated for 16 hrs followed by gemcitabine.HCl addition measured after 32 hrs; type: functional, cell-based; settings: dose 4.6-10 µM, time 48.0 hrs
Mus musculus = assay: Protection against topotecan-induced epithelium hypertrophy in gastrointestinal tract of C57BL/6 mouse at 2.4 mg/kg administered on day 0 to 4 and co-administered 30 mins prior to topotecan on day 1 to 4 followed by topotecan administration on day 5 measured on day 9 by H&E staining based analysis; type: functional, organism-based; settings: time 9.0 day
Fibroblast [13] = assay: Protection against chemotherapy-induced apoptosis in human fibroblast assessed as decrease in caspase-3/7 level preincubated for 16 hrs followed by oxaliplatin addition measured after 32 hrs; type: functional, cell-based; settings: dose 4.6-10 µM, time 48.0 hrs
[14] = Drug uptake in tumor of athymic nu/nu mouse xenografted with human SJSA-1 cells assessed as AUC (0 to 24 hrs) of metabolite ALRN-8714 at 25 mg/kg, iv measured for 24 hrs by LC-MS-MS analysis; type: ADME, organism-based, Neoplasm; set-up: dose 25 mg/kg, time 24 hrs, route iv; settings: in vivo
[15] = AUC (0 to 24 hrs) in tumor of athymic nu/nu mouse xenografted with human SJSA-1 cells at 25 mg/kg, iv measured for 24 hrs by LC-MS-MS analysis; type: ADME, organism-based, Neoplasm; set-up: dose 25 mg/kg, time 24 hrs, route iv; settings: in vivo
Bone marrow cell [16] = assay: Upregulation of p21 mRNA level in bone marrow cells of C57BL/6 mouse at 2.4 mg/kg, iv measured for 24 hrs by qRT-PCR analysis; type: functional, organism-based
[17] = Clearance in cynomolgous monkey at 5 mg/kg by LC-MS/MS analysis; type: ADME, organism-based, Macaca fascicularis; settings: cynomolgus monkey, in vivo
[18] = Clearance in cynomolgous monkey at 10 mg/kg by LC-MS/MS analysis; type: ADME, organism-based, Macaca fascicularis; settings: cynomolgus monkey, in vivo
Bone marrow cell [19] = assay: Upregulation of Noxa mRNA level in bone marrow cells of C57BL/6 mouse at 10 mg/kg, iv measured for 24 hrs by qRT-PCR analysis; type: functional, organism-based
CTG-0449 = assay: Antitumor activity against patient-derived human CTG-0449 cells xenografted in athymic nu/nu mouse model of AML assessed as tumor growth inhibition administered intravenously twice a week measured for 20 days; type: functional, cell-based; settings: dose 10-20 mg/kg, route iv, time 20.0 day
[20] = Plasma protein binding in rat at 2 to 50 uM; type: ADME, cell-free; settings: dose 2-50 µM, read-out: PPB (converted)
[21] = AUC (all) in cynomolgous monkey at 10 mg/kg by LC-MS/MS analysis; type: ADME, organism-based, Macaca fascicularis; set-up: dose 10 mg/kg; settings: cynomolgus monkey, in vivo
[22] = Clearance in rat at 5 mg/kg by LC-MS/MS analysis; type: ADME, organism-based; settings: in vivo
[23] = Half life in plasma of athymic nu/nu mouse xenografted with human SJSA-1 cells at 25 mg/kg, iv measured for 24 hrs by LC-MS-MS analysis; type: ADME, organism-based
[24] = Drug uptake in plasma of athymic nu/nu mouse xenografted with human SJSA-1 cells assessed as AUC (0 to 24 hrs) of metabolite ALRN-8714 at 25 mg/kg, iv measured for 24 hrs by LC-MS-MS analysis; type: ADME, organism-based; set-up: time 24 hrs, dose 25 mg/kg, route iv; settings: in vivo
[25] = Toxicity in monkey assessed as NOAEL administered twice weekly for 4 weeks; set-up: species or system Macaca mulatta; settings: rhesus monkey, in vivo
BT-474 = assay: […] chemotherapy-induced apoptosis in human BT-474 cells assessed as decrease in caspase-3/7 level at 4.6 to 10 uM preincubated for 16 hrs followed by paclitaxel addition measured after 32 hrs; type: functional, cell-based; settings: dose 4.6-10 µM, time 48.0 hrs
[26] = AUC (all) in rat at 10 mg/kg by LC-MS/MS analysis; type: ADME, organism-based; set-up: dose 10 mg/kg; settings: in vivo
Bone marrow cell [27] = assay: Downregulation of cPARP expression level in bone marrow cells of C57BL/6 mouse at 2.4 mg/kg, iv administered every 8 hrs measured for 16 hrs by immunohistochemical analysis; type: functional, organism-based
Fibroblast [28] = assay: Protection against apoptosis in human fibroblast assessed as decrease in chemotherapy-induced caspase-3/7 level preincubated for 16 hrs followed by etoposide addition measured after 32 hrs; type: functional, cell-based; settings: dose 4.6-10 µM, time 48.0 hrs
[29] = Drug uptake in tumor of athymic nu/nu mouse xenografted with human SJSA-1 cells assessed as half life of metabolite ALRN-8714 at 25 mg/kg, iv measured for 24 hrs by LC-MS-MS analysis; type: ADME, organism-based, Neoplasm; settings: in vivo
[30] = Drug uptake in plasma of athymic nu/nu mouse xenografted with human SJSA-1 cells assessed as half life of metabolite ALRN-8714 at 25 mg/kg, iv measured for 24 hrs by LC-MS-MS analysis; type: ADME, organism-based; settings: in vivo
[31] = Induction of cell cycle arrest in human CD34+ cells assessed as accumulation at S phase at 10 uM incubated for 24 hrs by flow cytometry (reference value: 27.5 +/- 5.8%); type: toxicity, cell-based; settings: cd34-positive (myeloid/lymphoid) cell
Bone marrow cell [32] = assay: Upregulation of p21 expression level in bone marrow cells of C57BL/6 mouse at 2.4 mg/kg, iv administered every 8 hrs measured for 16 hrs by immunohistochemical analysis; type: functional, organism-based
[33] = AUC (all) in cynomolgous monkey at 5 mg/kg by LC-MS/MS analysis; type: ADME, organism-based, Macaca fascicularis; set-up: dose 5 mg/kg; settings: cynomolgus monkey, in vivo
Bone marrow cell [34] = assay: Upregulation of Puma mRNA level in bone marrow cells of C57BL/6 mouse at 10 mg/kg, iv measured for 24 hrs by qRT-PCR analysis; type: functional, organism-based
[35] = AUC (all) in rat at 5 mg/kg by LC-MS/MS analysis; type: ADME, organism-based; set-up: dose 5 mg/kg; settings: in vivo
MC-38 = assay: Antitumor activity against mouse MC38 cells allografted in C57BL/6 mouse assessed as reduction in tumor volume at 8 mg/kg administered on day 0 to 4 and co-administered 30 mins prior to topotecan on day 1 to 4 followed by topotecan administration on day 5 measured for 40 days; type: functional, organism-based; settings: time 40.0 day

Compound `CC(=O)N[C@@H](CC(C)C)C(=O)N[C@H](C(=O)N[C@@H](Cc1ccccc1)C(=O)N[C@]1(C)CCCCCC/C=C/CCC[C@@](C)(C(=O)N[C@@H](C)C(=O)N[C@@H](C)C(=O)N[C@@H](C)C(=O)N[C@@H](C)C(=O)N[C@@H](C)C(=O)N[C@H](C)C(N)=O)NC(=O)[C@H](CC(C)C)NC(=O)[C@H](CCC(N)=O)NC(=O)[C@H](C)NC(=O)[C@H](Cc2c[nH]c3ccccc23)NC(=O)[C@H](Cc2ccc(O)cc2)NC(=O)[C@H](CCC(=O)O)NC1=O)[C@@H](C)O` has a fraction unbound at 250 µM [1] of 0.12, a fraction unbound at 250 µM [2] of 0.02 and a fraction unbound at 250 µM [3] of 0.19. For the same compound, the fraction unbound at up to 50 µM [4] was 0.08, the Activity [5] was 0.5% and the half-life [6] was 84 min. It also gave an Activity [7] of 0.22%, a half-life [8] of 330 min and a half-life [9] of 228 min. The Cmax [10] was 186 µg/mL, the Activity (MCF7) was “Tde” and the Activity (Bone marrow cell [11]) was “Active”. The Activity (Fibroblast [12]) was “Dose-Dependent Effect”, the Activity (Mus musculus) was “Active” and the Activity (Fibroblast [13]) was “Dose-Dependent Effect”. The AUC [14] was 128 µg·h/g, the AUC [15] was 1 µg·h/g and the Activity (Bone marrow cell [16]) was “Active”. The clearance [17] was 5.9 mL/h/kg, the clearance [18] was 0.127 mL/min/kg and the Activity (Bone marrow cell [19]) was “Active”. For the same compound, the Activity (CTG-0449) was “Dose-Dependent Effect”, the fraction unbound at up to 50 µM [20] was 0.08 and the AUC [21] was 1350 µg·h/mL. For the same compound, the clearance [22] was 0.4 mL/min/kg, the half-life [23] was 168 min and the AUC [24] was 85 µg·h/g. The NOAEL at 672 h [25] was 5 mg/kg, the Activity (BT-474) was “inactive” and the AUC [26] was 562 µg·h/mL. The Activity (Bone marrow cell [27]) was “Active”, the Activity (Fibroblast [28]) was “Dose-Dependent Effect” and the t1/2 [29] was 9 h. For the same compound, the t1/2 [30] was 8.4 h, the Activity [31] was 0.22% and the Activity (Bone marrow cell [32]) was “Active”. The AUC [33] was 914 µg·h/mL, the Activity (Bone marrow cell [34]) was “Active” and the AUC [35] was 223 µg·h/mL. The Activity (MC-38) was “Active”.
